Measurements from patent US6613358B2, “Sustained-release composition including amorphous polymer” (priority 1998, dated 2003).
“And” between values parts separate entries of the source, which are not always exact repeats. Equal values may be shown once.

Columns and labels:
[1] = test system: COS-7 cells; assay: Cytotoxicity, MTS cell proliferation assay; type: cell-based, green monkey
Protocol: (§1) The cytotoxicity of arginine dodecyl ester was investigated in cell culture with two types of cells (see Cory et al, Cancer Commun., 3, 207-212 (1991)): CCRF-CEM cells, a human T-cell leukemia cell line that grows in suspension (obtained from the American Type Culture Collection, ATCC); and a green monkey kidney cell line (COS-7) that grows in monolayers (also obtained from ATCC). For comparison, the cells were also exposed to […] bromide (DTAB) (Sigma).
Cells were plated into 96-well plates (Corning) in a total of 200 μL Dulbecco's modified minimal essential medium for COS-7 cells, RPMI 1640 for CEM cells, supplemented with penicillin G (50 U/ml), streptomycin sulfate (50 μg/ml), and 10% fetal calf serum, at 10,000 cells/well for COS-7 and 50,000 cells/well for CEM cells. The plates were incubated at 37° C. for 24 hours after plating. The cells were then exposed to various concentrations of the detergents. Each detergent concentration was used in 8 replicate wells. After 2-6 hours, media/detergent solutions were aspirated, and the wells were washed twice with PBS. For CEM suspension cells, centrifugation of the suspension at 1000× g for 5 min between each wash was required. […] After 72 hours, cell proliferation was determined using the Promega CellTiter 96 AQueous Non-Radioactive Cell Proliferation Assay. […]

[2] = test system: CCRF-CEM cells; assay: Cytotoxicity, MTS cell proliferation assay; type: cell-based, human
Protocol: as §1
Cells were plated into 96-well plates (Corning) in a total of 200 μL Dulbecco's modified minimal essential medium for COS-7 cells, RPMI 1640 for CEM cells, supplemented with penicillin G (50 U/ml), streptomycin sulfate (50 μg/ml), and 10% fetal calf serum, at 10,000 cells/well for COS-7 and 50,000 cells/well for CEM cells. The plates were incubated at 37° C. for 24 hours after plating. The cells were then exposed to various concentrations of the detergents. Each detergent concentration was used in 8 replicate wells. After 2-6 hours, media/detergent solutions were aspirated, and the wells were washed twice with PBS. For CEM suspension cells, centrifugation of the suspension at 1000× g for 5 min between each wash was required. After washing, 200 μL of fresh medium were added, and the cells were incubated for 72 hours. After 72 hours, cell proliferation was determined using the Promega CellTiter 96 AQueous Non-Radioactive Cell Proliferation Assay.

[3] = test system: COS-7 cells; assay: Transfection of plasmid pRSV400luc, luciferase activity; type: cell-based, green monkey; settings: without liposomes or helper lipids; serum-containing medium
From the text: The plasmid used was pRSV400luc. It was obtained from Dr. David Gordon Div. Endocrinology, University of Colorado School of Medicine, Denver, Colo. It was propagated in Escherichia coil strain DH5a (ATCC), isolated by a standard alkaline-SDS Iysis procedure, and purified twice by isopycnic centrifugation on CsCl gradients (Sambrook et al, Molecular Cloning: A Laboratory Manual (Cold Spring Harbor Laboratory) (1989). COS-7 cells at approximately 50,000 cells per 60 mm diameter plate (Falcon) were used for transfection. Control experiments were done with Lipofectamine (GIBCO/Life Technologies, Gaithersburg, Md.).
In 200 total μl of serum-free medium, plasmid (20 μg) and Lipofectamine or arginine dodecyl ester were mixed and allowed to interact for 45 minutes. […] Plates with cells were washed with serum-free medium. Then, 1 mL serum-free medium was added to plates already containing 2 mL serum-free medium and the plates were incubated at 37° C. for 4 hours. […]
After allowing cells to grow and express gene product for 36-50 hours, the cells were harvested. […] Intensity of luminescence should be proportional to the amount of expressed luciferase and, therefore, the efficiency of transfection. “Background” is the reading from just the substrate mixture on the luminometer before addition of cell lysate. […] Any reading over 100 units is considered significant.

[4] = Surface tension, critical micelle concentration; type: physicochemical; settings: in 0.1 N HCl
Protocol: Surface tension was measured using a Fisher surface tensiometer. Briefly, a platinum iridium ring with a diameter of 6 cm was lowered into the appropriate dilution of detergent in 0.1 N HCl. Surface tension was read at the point where the force on the ring upwards caused the ring to break contact with the liquid surface.

## CCCCCCCCCCCCOC(=O)[C@@H](N)CCCNC(=N)N [arginine dodecyl ester]
[1]
  toxicity relative to DTAB: approximately two-fold less toxicity
[2]
  toxicity relative to DTAB: seven-fold less toxicity
[2]; Homo sapiens, 2-6 hours exposure, 72 hours incubation, read-out: IC50 (half-maximal growth inhibition)
  IC50: 150 µM
[3]
  transfection of the plasmid: promoted transfection of the plasmid in a concentration and time dependent manner
[4]
  critical micelle concentration (cmc): approximately 0.3 mM and ~0.10 mg/ml
